Drawing on patent US8557816B2, “Aurora kinase modulators and method of use” (Amgen Inc., priority 2007, dated 2013), this text covers IC50 for twelve molecules.

In one test the target is T1, AuroraA-TPX2 (Homo sapiens, UniProt O14965).
T1 construct: 20 μL of AuroraA-TPX2 KD GST for a final volume of about 41 μL; GST
T1 sequence (O14965 133-383 limits assumed): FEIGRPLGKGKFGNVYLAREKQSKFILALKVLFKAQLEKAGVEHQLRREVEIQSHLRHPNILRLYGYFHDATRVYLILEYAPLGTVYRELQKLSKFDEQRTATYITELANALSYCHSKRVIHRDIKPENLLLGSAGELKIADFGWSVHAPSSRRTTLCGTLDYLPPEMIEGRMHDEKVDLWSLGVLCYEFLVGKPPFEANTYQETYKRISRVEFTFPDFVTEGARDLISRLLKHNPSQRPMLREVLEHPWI
T1 sequence (Q9ULW0 1-43 partner limits assumed): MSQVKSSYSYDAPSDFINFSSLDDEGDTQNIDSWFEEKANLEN
The experiment in a line: AuroraA-TPX2 Homogeneous Time Resolved Fluorescent (HTRF) kinase assay. The format is biochemical. Conditions: average; read-out: AurA_IC50_IP (uM Avg). The gist of the method:
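HTRF read-out (Eu 615 nm to APC 655 nm) of phosphorylated biotin-PLK, detected with 0.02 nM europium anti-phosphoPLK antibody and 0.0005 mg/mL SA-APC after overnight equilibration.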
(Time-resolved FRET reads energy transfer from a long-lived donor to a nearby acceptor.)

The target in a further test is T2, AuroraB (Homo sapiens, UniProt Q96GD4).
T2 construct: 20 μL of AuroraB FL H is for a final volume of 41 μL; His
T2 sequence (Q96GD4 whole entry): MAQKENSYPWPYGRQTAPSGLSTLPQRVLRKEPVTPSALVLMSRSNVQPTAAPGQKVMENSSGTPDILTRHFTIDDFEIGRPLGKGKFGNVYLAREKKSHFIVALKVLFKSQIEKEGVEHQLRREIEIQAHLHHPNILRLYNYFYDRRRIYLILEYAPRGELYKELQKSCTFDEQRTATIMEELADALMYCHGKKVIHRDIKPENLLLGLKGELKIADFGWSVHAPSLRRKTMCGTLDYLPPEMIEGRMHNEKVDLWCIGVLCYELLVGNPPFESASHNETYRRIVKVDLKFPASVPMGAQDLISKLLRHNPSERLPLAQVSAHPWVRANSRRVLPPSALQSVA
The experiment in a line: AuroraB Homogeneous Time Resolved Fluorescent (HTRF) kinase assay. The format is biochemical. Conditions: average; read-out: AurB_IC50_IP (uM Avg). In outline:
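Full-length His-tagged kinase phosphorylates biotinylated Histone H3 (0.1 μM final) with ATP in pH 7.5 HEPES containing MgCl, MnCl, DTT and BSA for about 90 min. EDTA-containing detection mix with SA-APC and Eu-anti-phosphoHistone H3 then equilibrated about 60 min; HTRF read with 320 nm excitation, emissions 615/655 nm.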

`COc1cc2nncc(Oc3ccc(Nc4nnc(-c5ccccc5)c5ccccc45)cc3)c2cc1OC` [compound 254, N-(4-((6,7-bis(methyloxy)-4-cinnolinyl)oxy)phenyl)-4-phenyl-1-phthalazinamine]: the IC50 on AuroraA-TPX2 is 1.64 µM; on AuroraB, 0.253 µM.
In the same order, the values of `CCc1cc(-c2ccc(Cl)cc2)nnc1Nc1ccc(Oc2ccnc3cc(OC)cnc23)cc1` [compound 256, 6-(4-chlorophenyl)-4-ethyl-N-(4-((7-(methyloxy)-1,5-naphthyridin-4-yl)oxy)phenyl)-3-pyridazinamine] are 0.012 µM and 0.003 µM.
Regarding `c1ccc(-c2nnc(Nc3ccc(Oc4ncnc5nc[nH]c45)cc3)c3ccccc23)cc1` [compound 257, 4-phenyl-N-(4-(7H-purin-6-yloxy)phenyl)-1-phthalazinamine], the IC50 stood at 0.868 µM on AuroraA-TPX2 and 0.129 µM on AuroraB.
On the same counts, the results for `COc1cnc2c(Oc3ccc(Nc4nnc(-c5cccc(N(C)C)c5)c5ccccc45)cc3)ccnc2c1` [compound 258, 4-(3-(dimethylamino)phenyl)-N-(4-((7-(methyloxy)-1,5-naphthyridin-4-yl)oxy)phenyl)-1-phthalazinamine] are 0.005 µM and 0.002 µM.
In the same order, the values of `O=C(c1cc2nccc(Oc3ccc(Nc4nnc(-c5ccc(Cl)cc5)c5ccccc45)cc3)c2s1)N1CCOCC1` [compound 259, 4-(4-chlorophenyl)-N-(4-((2-(4-morpholinylcarbonyl)thieno-[3,2-b]pyridin-7-yl)oxy)phenyl)-1-phthalazinamine] are 0.023 µM and 0.006 µM.
Regarding `COc1cnc2c(Oc3ccc(Nc4nnc(-c5cc(C)c(C)s5)c5ccccc45)cc3)ccnc2c1` [compound 260, 4-(4,5-dimethyl-2-thienyl)-N-(4-((7-(methyloxy)-1,5-naphthyridin-4-yl)oxy)phenyl)-1-phthalazinamine], the values for the IC50 at AuroraA-TPX2 and on AuroraB were 0.008 µM and 0.009 µM, respectively.
In the same order, the values of `COc1cnc2c(Oc3ccc(Nc4nnc(-c5c(C)nn(C)c5C)c5ccccc45)cc3)ccnc2c1` [compound 261, N-(4-((7-(methyloxy)-1,5-naphthyridin-4-yl)oxy)phenyl)-4-(1,3,5-trimethyl-1H-pyrazol-4-yl)-1-phthalazinamine] are 1.61 µM and 0.156 µM.
In the same order, the values of `COc1cnc2c(Oc3ccc(Nc4nnc(-c5ccc([S+](C)[O-])cc5)c5ccccc45)cc3)ccnc2c1` (stereo not drawn) [compound 262, N-(4-((7-(methyloxy)-1,5-naphthyridin-4-yl)oxy)phenyl)-4-(4-(methylsulfinyl)phenyl)-1-phthalazinamine] are 0.102 µM and 0.006 µM.
In the same order, the values of `COc1cnc2c(Oc3ccc(Nc4nnc(-c5ccc(S(C)(=O)=O)cc5)c5ccccc45)cc3)ccnc2c1` [compound 263, N-(4-((7-(methyloxy)-1,5-naphthyridin-4-yl)oxy)phenyl)-4-(4-(methylsulfonyl)phenyl)-1-phthalazinamine] are 0.036 µM and 0.002 µM.
`c1ccc(-c2nnc(Nc3ccc(Oc4ccnc5ccc(N6CCOCC6)cc45)cc3)c3ccccc23)cc1` [compound 264, N-(4-((6-(4-morpholinyl)-4-quinolinyl)oxy)phenyl)-4-phenyl-1-phthalazinamine]: the IC50 was determined as 0.139 µM at AuroraA-TPX2 and 0.016 µM at AuroraB.
In the same order, the values of `N#Cc1cnc2c(Oc3ccc(Nc4nnc(-c5ccc(Cl)cc5)c5ccccc45)cc3)ccnc2c1` [compound 265, 8-((4-((4-(4-chlorophenyl)-1-phthalazinyl)amino)phenyl)oxy)-1,5-naphthyridine-3-carbonitrile] are 0.113 µM and 0.009 µM.
On to `Clc1ccc(-c2nnc(Nc3ccc(Oc4ncnc5[nH]cnc45)cc3)c3ccccc23)cc1` [compound 266, 4-(4-chlorophenyl)-N-(4-(9H-purin-6-yloxy)phenyl)-1-phthalazinamine], for which the results for the IC50 on AuroraA-TPX2 and at AuroraB were 0.679 µM and 0.045 µM, respectively.
